Measured values taken from US20260284009A1, “COMPOUNDS FOR NOS-RELATED CANCERS AND METHODS OF USE” (YISSUM RESEARCH DEVELOPMENT COMPANY OF THE HEBREW …, priority 2023, published 2026).

How the values were obtained:
[1] = tested on: U87-MG cells; test: Nitrate and nitrite levels in U87-MG cells; type: cell-based, human; conditions: 100 μM 7-NI, 500 or 1000 μM L-NIL, combinations of both, n=3
Experimental: In FIGS. 10A-10B, data are presented as mean±SEM. Statistical significance was determined using a One-way ANOVA with Bonferroni's multiple comparisons tests. *P<0.05, **P<0.01, and ns=not significant.
FIG. 10A: Quantitative analysis of nitrate and nitrite levels in U87-MG cells following administration of 0.1% DMSO (“Vehicle”) (n=3) or 100 μM 7-NI (“7-NI”) (n=3).
FIG. 10B: Quantitative analysis of nitrate and nitrite levels in U87-MG cells following administration of control (n=3), 500 μM L-NIL (“L-NIL 500”) (n=3), or 1000 μM L-NIL (“L-NIL 1000”) (n=3).
Data are expressed as the mean±SEM.

[2] = tested on: U87-MG-xenografted mice; test: Tumor growth in U87-MG-xenografted mice; type: in vivo; conditions: 10 mg/kg, compared to the vehicle (FIGS. 16-17)
Experimental: (§1) In a particular example, in vitro and in vivo experiments were performed using U87-MG cells and U87-MG-xenografted mice, respectively, as a glioblastoma model.

[3] = tested on: U87-MG cells; test: Griess assay, nitrite and nitrate content; type: cell-based, human; conditions: L-NIL alone, compared to the control (summary statement)
Experimental: as §1

[4] = tested on: SH-SY5Y cells; test: Nitrite levels (marker of NO levels) by Griess assay in SH-SY5Y cells; type: cell-based, human; conditions: 100 μM 7-NI or 20 nM siRNA (SEQ ID NO: 4), n=3
Experimental: In FIGS. 2A-2C, for quantitative analysis absorbance at 585 nm was normalized for total protein. Data are expressed as the mean±SEM. Statistical significance was determined using a One-way ANOVA followed by Fisher's LSD multiple comparison post hoc test. *P<0.05 and **P<0.01.
FIG. 2B: Quantitative analysis of nitrite levels (a marker of NO levels) measured by Griess assay for SH-SY5Y cells following administration of the control (“SH-SY5Y”) (n=3), 0.1% DMSO (“SH-SY5Y+NC”) (n=3), 100 μM 7-NI (“SH-SY5Y+7-NI”) (n=3), 20 nM siRNA (SEQ ID NO: 4) (“SH-SY5Y+si-nNOS”) (n=3).

[5] = tested on: SH-SY5Y-xenografted mice; test: Tumor volume in SH-SY5Y-xenografted mice; type: in vivo; conditions: 80 mg/kg 7-NI, after 1 month, vs control
Experimental: Data are presented as mean±SEM. Statistical significance was determined using a One-way ANOVA followed by Fisher's LSD multiple comparison post hoc test. **P<0.01.

[6] = tested on: SH-SY5Y cells; test: NADPH-diaphorase staining of SH-SY5Y cells; type: cell-based, human; conditions: 7-NI treated vs untreated group
Experimental: Human neuroblastoma (“NB”) SH-SY5Y cells were obtained from the American Type Culture Collection (ATCC) and maintained in Dulbecco's modified Eagle's medium (DMEM) and Ham's F-12 (1:1) supplemented with 10% fetal bovine serum, 2 mM L-glutamine, and 100 U/ml penicillin-G/[…] streptomycin in the humidified atmosphere (37° C., 5% CO2). Cells were plated onto 25 cm^2 and 75 cm^2 at a density of […] respectively for Western blotting (WB) and 1×10^5 for immunofluorescence. The SH-SY5Y cells were treated with 100 μM 7-nitroindazole (7-NI) for 24 hr. This concentration was confirmed in the dose-response experiment (FIG. 1) using an MTT viability assay.
NADPH diaphorase staining were done using NBT as a chromogen and […] as a reductant to detect cells with NOS activity. Cells were cultured and treated as described previously in the immunofluorescence section. Then cells were fixed with 4% PFA for 30 min at room temperature in dark. After fixation, the cells were washed 2 times with PBS and then incubated in 0.2% Triton X-100 (in phosphate buffer) for 10 min. The cells were then incubated in […] NBT-NADPH solution for 2 h at 37C. The cells were washed twice with PBS and permanently mounted with DPX. Images were analyzed with a Nikon confocal TL microscope. […]

[7] = tested on: U87-MG cells; test: Xenograft glioblastoma model, U87-MG cells in NSG mice: tumor volume and mass; type: in vivo
Experimental: (§2) A xenograft glioblastoma model was generated by injecting 1.0×10^6 U87-MG cells (in PBS) into the subcutaneous tissue in the flank of NOD SCID Gamma (NSG) male (n=40) and female mice (n=5). Mice were 6-7 weeks old at time of injections. Mice were divided into groups and treatment was started when tumor volume reached 50 mm^3.
An initial experiment was performed with two treatment groups of mice, the treatment groups were: 0.1% DMSO (“Vehicle”) (n=10) and 80 mg/kg of 7-NI (n=10). Treatments were administered intraperitoneally daily for 8 days. Treatment started after five days from the injection with U87-MG cells. After one month, all mice were euthanized, and tumors were harvested for ex vivo analysis and histology. Tumor volume was measured using calipers and was calculated as (length*width^2)/2. The tumor volume of all mice were tabulated, as well the best 4-5 mice in terms of treatment efficacy (smallest tumor volume).
A dose response experiment was performed in the mice, the treatment groups were 0.1% DMSO (“Vehicle”) (n=8), 20 mg/kg 7-NI (n=8), 40 mg/kg 7-NI (n=8), and 80 mg/kg 7-NI (n=8). Treatments were administered intraperitoneally daily, for 14 days. Treatment started after five days from the injection with U87-MG cells. All mice were euthanized, and tumors were harvested for ex vivo analysis and histology. Tumor volume was measured using calipers and was calculated as (length*width^2)/2. The tumor volume of all mice were tabulated, as well the tumor mass.

[8] = tested on: U87-MG cells; test: Xenograft glioblastoma model, U87-MG cells in NSG mice: survival experiment; type: in vivo; conditions: 80 mg/kg or 120 mg/kg 7-NI intraperitoneally daily, vehicle-treated mice 35 days
Experimental: as §2
A survival experiment was performed in the mice, the treatment groups were saline (“Vehicle”) (n=10), 80 mg/kg 7-NI (n=10), and 120 mg/kg 7-NI (n=8). Treatments were administered intraperitoneally daily.

[9] = highest dosage of 7-NI (80 mg/kg) in dose response experiment, daily for 14 days, vs lower dosages
[10] = reduced dosages, as low as 20 mg/kg 7-NI intraperitoneally daily for 14 days, vs vehicle

| SMILES | nitrate and nitrite levels [1] | average tumor size [2] | total nitrate and nitrite content [3] | nitrite levels (a marker of NO levels) [4] | tumor volume [5] | NADPH diaphorase staining [6] | average tumor size ([7]; NSG mice, 80 mg/kg 7-NI intraperitoneally daily for 8 days, vs vehicle) | average tumor size [7, 9] | tumor mass [7, 9] | average tumor size [7, 10] | tumor mass [7, 10] | median survival [8] |
| --- | --- | --- | --- | --- | --- | --- | --- | --- | --- | --- | --- | --- |
| CC(=N)NCCCC[C@H](N)C(=O)O [L-NIL, N^6-(1-iminoethyl)-L-lysine] | significant decrease | significantly smaller | significantly reduced |  |  |  |  |  |  |  |  |  |
| O=[N+]([O-])c1cccc2cn[nH]c12 [7-NI, 7-nitroindazole] | significant decrease |  |  | significant decrease | significantly smaller | decreased | significantly smaller | larger reduction | larger reduction | significantly smaller | smaller | ~ 65 days |
